# Data as given in patent US8124793B2, “Derivatives of ethylene methanedisulfonate as cancer chemotherapeutic agents” (priority 2007, dated 2012).
# Legend:
# Type in all cases: cell-based
# IGROVI = experiment: NCI screen, growth of human tumor cells: Ovarian Cancer IGROVI; settings: IGROVI (Ovarian Cancer), 10^−4 molar
# Summary of the method: (§1)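 The NCI screen tests each compound on human cancer cell lines and reports percent growth. Concentrations are given in molar units; the number of data points per compound is sixty at minimum.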
# RXF-393 = experiment: NCI screen, growth of human tumor cells: Renal Cancer RXF-393; settings: RXF-393 (Renal Cancer), 10^−4 molar
# Summary of the method: as §1
# HT29 = experiment: NCI screen, growth of human tumor cells: Colon Cancer HT29; settings: HT29 (Colon Cancer), 10^−4 molar
# Summary of the method: as §1
# MOLT-4 = experiment: NCI screen, growth of human tumor cells: Leukemia MOLT-4; settings: MOLT-4 (Leukemia), 10^−4 molar
# Summary of the method: as §1
# NCI-H23 = experiment: NCI screen, growth of human tumor cells: Non-Small Cell Lung NCI-H23; settings: NCI-H23, 10^−4 molar
# Summary of the method: as §1
# HCT-116 = experiment: NCI screen, growth of human tumor cells: Colon Cancer HCT-116; settings: HCT-116 (Colon Cancer), 10^−4 molar
# Summary of the method: as §1
# OVCAR-8 = experiment: NCI screen, growth of human tumor cells: Ovarian Cancer OVCAR-8; settings: OVCAR-8 (Ovarian Cancer), 10^−4 molar
# Protocol: (§2) In the NCI screening process, each compound was tested and described by a minimum of 60 data points. The test data include, but are not limited to the type of cancer, the molar concentration used in the screen, and the percent growth of the cancer. In some cases, NMR and elemental analysis were used for structural assignment.
# DU-145 = experiment: NCI screen, growth of human tumor cells: Prostate Cancer DU-145; settings: DU-145 (Prostate Cancer), 10^−4 molar
# Summary of the method: as §1
# UACC-257 = experiment: NCI screen, growth of human tumor cells: Melanoma UACC-257; settings: UACC-257 (Melanoma), 10^−4 molar
# Summary of the method: as §1
# HOP-62 = experiment: NCI screen, growth of human tumor cells: Non-Small Cell Lung HOP-62; settings: HOP-62 (Non-Small Cell Lung), 10^−4 molar
# Summary of the method: as §1
# U-251 = experiment: NCI screen, growth of human tumor cells: CNS Cancer U-251; settings: U-251 (CNS Cancer), 10^−4 molar
# Summary of the method: as §1
# 786-0 = experiment: NCI screen, growth of human tumor cells: Renal Cancer 786-0; settings: 786-0 (Renal Cancer), 10^−4 molar
# Summary of the method: as §1
# NCI-H460 = experiment: NCI screen, growth of human tumor cells: Non-Small Cell Lung NCI-H460; settings: NCI-H460 (Non-Small Cell Lung), 10^−4 molar
# Summary of the method: as §1
# MDA-MB-231/ATCC = experiment: NCI screen, growth of human tumor cells: Breast Cancer MDA-MB-231/ATCC; settings: MDA-MB-231/ATCC (Breast Cancer), 10^−4 molar
# Protocol: as §2
# HCT-15 = experiment: NCI screen, growth of human tumor cells: Colon Cancer HCT-15; settings: HCT-15 (Colon Cancer), 10^−4 molar
# Summary of the method: as §1
# SK-MEL-5 = experiment: NCI screen, growth of human tumor cells: Melanoma SK-MEL-5; settings: SK-MEL-5 (Melanoma), 10^−4 molar
# Summary of the method: as §1
# MCF 7 = experiment: NCI screen, growth of human tumor cells: Breast Cancer MCF 7; settings: MCF 7 (Breast Cancer), 10^−4 molar
# Summary of the method: as §1
# NCI-H522 = experiment: NCI screen, growth of human tumor cells: Non-Small Cell Lung NCI-H522; settings: NCI-H522, 10^−4 molar
# Summary of the method: as §1
# SK-MEL-28 = experiment: NCI screen, growth of human tumor cells: Melanoma SK-MEL-28; settings: SK-MEL-28 (Melanoma), 10^−4 molar
# Summary of the method: as §1
# UACC-62 = experiment: NCI screen, growth of human tumor cells: Melanoma UACC-62; settings: UACC-62 (Melanoma), 10^−4 molar
# Summary of the method: as §1
# MCF7/ADR-RES = experiment: NCI screen, growth of human tumor cells: Breast Cancer MCF7/ADR-RES; settings: MCF7/ADR-RES (Breast Cancer), 10^−4 molar
# Summary of the method: as §1
# OVCAR-5 = experiment: NCI screen, growth of human tumor cells: Ovarian Cancer OVCAR-5; settings: OVCAR-5 (Ovarian Cancer), 10^−4 molar
# Summary of the method: as §1
# SF-268 = experiment: NCI screen, growth of human tumor cells: CNS Cancer SF-268; settings: SF-268 (CNS Cancer), 10^−4 molar
# Summary of the method: as §1
# BT-549 = experiment: NCI screen, growth of human tumor cells: Breast Cancer BT-549; settings: BT-549 (Breast Cancer), 10^−4 molar
# Summary of the method: as §1
# LOXIMVI = experiment: NCI screen, growth of human tumor cells: Melanoma LOXIMVI; settings: LOXIMVI (Melanoma), 10^−4 molar
# Summary of the method: as §1
# OVCAR-4 = experiment: NCI screen, growth of human tumor cells: Ovarian Cancer OVCAR-4; settings: OVCAR-4, 10^−4 molar
# Summary of the method: as §1
# NCI-H226 = experiment: NCI screen, growth of human tumor cells: Non-Small Cell Lung NCI-H226; settings: NCI-H226 (Non-Small Cell Lung), 10^−4 molar
# Summary of the method: as §1
# NCI-H322M = experiment: NCI screen, growth of human tumor cells: Non-Small Cell Lung NCI-H322M; settings: NCI-H322M (Non-Small Cell Lung), 10^−4 molar
# Summary of the method: as §1
# RPMI-8226 = experiment: NCI screen, growth of human tumor cells: Leukemia RPMI-8226; settings: RPMI-8226 (Leukemia), 10^−4 molar
# Summary of the method: as §1
# CAKI-1 = experiment: NCI screen, growth of human tumor cells: Renal Cancer CAKI-1; settings: CAKI-1 (Renal Cancer), 10^−4 molar
# Summary of the method: as §1
# SW620 = experiment: NCI screen, growth of human tumor cells: Colon Cancer SW620; settings: SW620 (Colon Cancer), 10^−4 molar
# Protocol: as §2
# SNB-19 = experiment: NCI screen, growth of human tumor cells: CNS Cancer SNB-19; settings: SNB-19 (CNS Cancer), 10^−4 molar
# Summary of the method: as §1
# ACHN = experiment: NCI screen, growth of human tumor cells: Renal Cancer ACHN; settings: ACHN (Renal Cancer), 10^−4 molar
# Summary of the method: as §1
# MDA-MB-435 = experiment: NCI screen, growth of human tumor cells: Breast Cancer MDA-MB-435; settings: MDA-MB-435 (Breast Cancer), 10^−4 molar
# Summary of the method: as §1
# SN12C = experiment: NCI screen, growth of human tumor cells: Renal Cancer SN12C; settings: SN12C (Renal Cancer), 10^−4 molar
# Summary of the method: as §1
# human cancer cells = experiment: NCI screen summary over the cancers tested (negative growth of human cancer cells); settings: 10^−4 M conc.; cancers with negative growth / cancers tested
# Protocol: as §2
# The derivatives in the tables are grouped using the same category as in the tables 1-6.
# HS 578T = experiment: NCI screen, growth of human tumor cells: Breast Cancer HS 578T; settings: HS 578T (Breast Cancer), 10^−4 molar
# Summary of the method: as §1
# SF-539 = experiment: NCI screen, growth of human tumor cells: CNS Cancer SF-539; settings: SF-539 (CNS Cancer), 10^−4 molar
# Summary of the method: as §1
# M14 = experiment: NCI screen, growth of human tumor cells: Melanoma M14; settings: M14 (Melanoma), 10^−4 molar
# Summary of the method: as §1
# EKVX = experiment: NCI screen, growth of human tumor cells: Non-Small Cell Lung EKVX; settings: EKVX, 10^−4 molar
# Summary of the method: as §1
# MDA-N = experiment: NCI screen, growth of human tumor cells: Breast Cancer MDA-N; settings: 10^−4 molar
# Protocol: as §2
# OVCAR-3 = experiment: NCI screen, growth of human tumor cells: Ovarian Cancer OVCAR-3; settings: OVCAR-3 (Ovarian Cancer), 10^−4 molar
# Summary of the method: as §1
# HCC-2998 = experiment: NCI screen, growth of human tumor cells: HCC-2998 (listed under Non-Small Cell Lung); settings: HCC-2998, 10^−4 molar
# Summary of the method: as §1
smiles,measurement,setting,value
CCOCC1(COCC)S(=O)(=O)OCCOS1(=O)=O [NSC 698120],percent of growth of human tumor cells,IGROVI,−28%
same,percent of growth of human tumor cells,RXF-393,−36%
same,percent of growth of human tumor cells,HT29,−3%
same,percent of growth of human tumor cells,MOLT-4,23%
same,% Growth,NCI-H23,−72%
same,percent of growth of human tumor cells,HCT-116,−6%
same,percent of growth of human tumor cells,OVCAR-8,−43%
same,percent of growth of human tumor cells,DU-145,24%
same,percent of growth of human tumor cells,UACC-257,−14%
same,percent of growth of human tumor cells,HOP-62,23%
same,percent of growth of human tumor cells,U-251,−47%
same,percent of growth of human tumor cells,786-0,15%
same,percent of growth of human tumor cells,NCI-H460,−38%
same,percent of growth of human tumor cells,MDA-MB-231/ATCC,18%
same,percent of growth of human tumor cells,HCT-15,−27%
same,percent of growth of human tumor cells,SK-MEL-5,25%
same,percent of growth of human tumor cells,MCF 7,27%
same,% Growth,NCI-H522,−83%
same,percent of growth of human tumor cells,SK-MEL-28,12%
same,percent of growth of human tumor cells,UACC-62,−36%
same,percent of growth of human tumor cells,MCF7/ADR-RES,−26%
same,percent of growth of human tumor cells,OVCAR-5,−28%
same,percent of growth of human tumor cells,SF-268,21%
same,percent of growth of human tumor cells,BT-549,−4%
same,percent of growth of human tumor cells,LOXIMVI,−25%
same,% Growth,OVCAR-4,−88%
same,percent of growth of human tumor cells,NCI-H226,0%
same,percent of growth of human tumor cells,NCI-H322M,20%
same,percent of growth of human tumor cells,RPMI-8226,10%
same,percent of growth of human tumor cells,CAKI-1,7%
same,percent of growth of human tumor cells,SW620,−3%
same,percent of growth of human tumor cells,SNB-19,14%
same,percent of growth of human tumor cells,ACHN,18%
same,percent of growth of human tumor cells,MDA-MB-435,1%
same,percent of growth of human tumor cells,SN12C,24%
same,Percentage of cancers showing negative growth cancers tested,human cancer cells,10^−4 M conc. = 22/42 = 52%
same,percent of growth of human tumor cells,HS 578T,15%
same,percent of growth of human tumor cells,SF-539,20%
same,percent of growth of human tumor cells,M14,−36%
same,% Growth,EKVX,−99%
same,percent of growth of human tumor cells,MDA-N,3%
same,percent of growth of human tumor cells,OVCAR-3,−13%
same,% Growth,HCC-2998,−92%
